Where two headings read alike, the source gives them in different places.
Biological target: T1, PI3K delta (Homo sapiens, UniProt O00329)
T1 construct: for the full-length p110-d subunit are generated and fused by overlapping PCR; His tag (C); made in house; host or cells: baculovirus BV1060; Tn5 (Trichoplusia ni) or TiniPro insect cells
Test: PI3K delta kinase assay (Kinase-Glo luminescence)
Assay type: biochemical
Outline: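 Kinase-Glo ATP-depletion luminescence using 10 nM p85(iSH2)-linker-p110δ full-length His-tag construct from insect cells, with 1 μM ATP and 10 μg/mL phosphatidylinositol in 10 mM Tris pH 7.5, 3 mM MgCl2, 50 mM NaCl, 0.05% CHAPS, 1 mM DTT. 60 min room temperature; IC50 from 4-parameter logistic fit over 8 concentrations.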

T1 sequence (O00329 with tags, fused parts or gaps limits assumed): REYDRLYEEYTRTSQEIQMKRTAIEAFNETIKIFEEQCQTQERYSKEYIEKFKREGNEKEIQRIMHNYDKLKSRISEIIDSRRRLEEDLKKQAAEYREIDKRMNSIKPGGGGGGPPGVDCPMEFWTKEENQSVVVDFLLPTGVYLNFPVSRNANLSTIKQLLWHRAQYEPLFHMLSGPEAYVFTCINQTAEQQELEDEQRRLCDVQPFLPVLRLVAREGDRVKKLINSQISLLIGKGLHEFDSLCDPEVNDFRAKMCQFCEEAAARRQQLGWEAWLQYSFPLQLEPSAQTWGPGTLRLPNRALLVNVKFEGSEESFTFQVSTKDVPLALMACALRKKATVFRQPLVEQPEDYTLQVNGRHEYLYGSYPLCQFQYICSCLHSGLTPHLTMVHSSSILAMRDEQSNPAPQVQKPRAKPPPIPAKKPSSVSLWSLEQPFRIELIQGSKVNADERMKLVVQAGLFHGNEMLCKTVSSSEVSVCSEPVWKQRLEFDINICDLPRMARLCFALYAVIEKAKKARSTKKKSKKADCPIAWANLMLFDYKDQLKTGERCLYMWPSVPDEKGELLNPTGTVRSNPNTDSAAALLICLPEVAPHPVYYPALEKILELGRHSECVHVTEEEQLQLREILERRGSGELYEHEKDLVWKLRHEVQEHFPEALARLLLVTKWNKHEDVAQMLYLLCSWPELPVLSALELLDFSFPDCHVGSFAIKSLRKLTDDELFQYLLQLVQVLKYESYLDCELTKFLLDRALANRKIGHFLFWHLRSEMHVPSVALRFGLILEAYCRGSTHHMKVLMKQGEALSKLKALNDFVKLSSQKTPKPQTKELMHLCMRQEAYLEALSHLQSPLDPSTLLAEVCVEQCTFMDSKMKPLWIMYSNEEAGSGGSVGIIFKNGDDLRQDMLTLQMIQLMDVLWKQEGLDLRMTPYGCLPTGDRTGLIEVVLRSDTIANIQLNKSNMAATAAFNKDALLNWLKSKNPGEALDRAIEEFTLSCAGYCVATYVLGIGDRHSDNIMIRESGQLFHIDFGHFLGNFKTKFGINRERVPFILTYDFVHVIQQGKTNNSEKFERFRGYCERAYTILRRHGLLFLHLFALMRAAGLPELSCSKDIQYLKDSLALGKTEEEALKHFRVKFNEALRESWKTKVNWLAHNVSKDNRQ

IC50 (read-out: EPK_PI3Kdelta/IC50)	IC50 (read-out: PI3Kdelta/IC50)	Structure (SMILES)
0.014 µM		COCCOc1cc(-c2ccc3ncc4c(c3c2)n(-c2ccc(OC)nc2OC)c(=O)n4C)cnc1C [Example 8.9, 1-(2,6-Dimethoxy-pyridin-3-yl)-8-[5-(2-methoxy-ethoxy)-6-methyl-pyridin-3-yl]-3-methyl-1,3-dihydro-imidazo[4,5-c]quinolin-2-one]
< 0.003 µM		COc1ccc(-n2c(=O)n(C)c3cnc4ccc(-c5cnc(CO)c(OC)c5)cc4c32)c(C)n1 [Example 11.8, 8-(6-Hydroxymethyl-5-methoxy-pyridin-3-yl)-1-(6-methoxy-2-methyl-pyridin-3-yl)-3-methyl-1,3-dihydro-imidazo[4,5-c]quinolin-2-one]
0.03 µM		CCOc1ccc(-c2ccc3ncc4c(c3c2)n(-c2ccc(C)nc2C)c(=O)n4C)cn1 [Example 14.2, 1-(2,6-Dimethyl-pyridin-3-yl)-8-(6-ethoxy-pyridin-3-yl)-3-methyl-1,3-dihydro-imidazo[4,5-c]quinolin-2-one]
0.101 µM		COCCOc1ccc(-n2c(=O)n(C)c3cnc4ccc(-c5cncc(N6CCC6)c5)cc4c32)c(C)n1 [Example 22.2, 8-(5-Azetidin-1-yl-pyridin-3-yl)-1-[6-(2-methoxy-ethoxy)-2-methyl-pyridin-3-yl]-3-methyl-1,3-dihydro-imidazo[4,5-c]quinolin-2-one]
0.039 µM		Cc1cc(F)ncc1-n1c(=O)n(C)c2cnc3ccc(-c4cnc5c(ccn5C)c4)cc3c21 [Example 16.5, 1-(6-Fluoro-4-methyl-pyridin-3-yl)-3-methyl-8-(1-methyl-1H-pyrrolo[2,3-b]pyridin-5-yl)-1,3-dihydro-imidazo[4,5-c]quinolin-2-one]
0.04 µM		COCCN(C)c1ccc(-n2c(=O)n(C)c3cnc4ccc(-c5cnc(CO)c(OC)c5)cc4c32)c(C)n1 [Example 15.9, 8-(6-Hydroxymethyl-5-methoxy-pyridin-3-yl)-1-{6-[(2-methoxy-ethyl)-methyl-amino]-2-methyl-pyridin-3-yl}-3-methyl-1,3-dihydro-imidazo[4,5-c]quinolin-2-one]
0.06 µM		CNc1ncc(-c2ccc3ncc4c(c3c2)n(-c2ccc(OCCOC)nc2C)c(=O)n4C)cn1 [Example 13.5, 1-[6-(2-Methoxy-ethoxy)-2-methyl-pyridin-3-yl]-3-methyl-8-(2-methylamino-pyrimidin-5-yl)-1,3-dihydro-imidazo[4,5-c]quinolin-2-one]
0.024 µM		CNc1ccc(-c2ccc3ncc4c(c3c2)n(-c2ccc(N3CCCC3)nc2C)c(=O)n4C)cn1 [Example 25.1, 3-Methyl-8-(6-methylamino-pyridin-3-yl)-1-(2-methyl-6-pyrrolidin-1-yl-pyridin-3-yl)-1,3-dihydro-imidazo[4,5-c]quinolin-2-one]
	0.072 µM	COc1ccc(-c2ccc3ncc4c(c3c2)n(-c2cccnc2)c(=O)n4C)cc1OC [Example 5.2, 8-(3,4-Dimethoxy-phenyl)-3-methyl-1-pyridin-3-yl-1,3-dihydro-imidazo[4,5-c]quinolin-2-one]
0.005 µM		CNC(=O)c1cc(-c2ccc3ncc4c(c3c2)n(-c2ccc(F)nc2C)c(=O)n4C)cnc1N [Example 7.14, 2-Amino-5-[1-(6-fluoro-2-methyl-pyridin-3-yl)-3-methyl-2-oxo-2,3-dihydro-1H-imidazo[4,5-c]quinolin-8-yl]-N-methyl-nicotinamide]
0.003 µM		CCNc1cc(-c2ccc3ncc4c(c3c2)n(-c2ccc(OC)nc2C)c(=O)n4C)cnc1C [Example 11.7, 8-(5-Ethylamino-6-methyl-pyridin-3-yl)-1-(6-methoxy-2-methyl-pyridin-3-yl)-3-methyl-1,3-dihydro-imidazo[4,5-c]quinolin-2-one]
	0.101 µM	COc1ncccc1-n1c(=O)n(C)c2cnc3ccc(-c4cnc5c(ccn5C)c4)cc3c21 [Example 1.7, 1-(2-Methoxy-pyridin-3-yl)-3-methyl-8-(1-methyl-1H-pyrrolo[2,3-b]pyridin-5-yl)-1,3-dihydro-imidazo[4,5-c]quinolin-2-one]
0.032 µM		CNc1ncc(-c2ccc3ncc4c(c3c2)n(-c2ccc(N(C)CCOC)nc2C)c(=O)n4C)cn1 [Example 15.2, 1-{6-[(2-Methoxy-ethyl)-methyl-amino]-2-methyl-pyridin-3-yl}-3-methyl-8-(2-methylamino-pyrimidin-5-yl)-1,3-dihydro-imidazo[4,5-c]quinolin-2-one]
0.027 µM		Cc1cc(F)ncc1-n1c(=O)n(C)c2cnc3ccc(-c4cnc(N)c(C(F)(F)F)c4)cc3c21 [Example 16.1, 8-(6-Amino-5-trifluoromethyl-pyridin-3-yl)-1-(6-fluoro-4-methyl-pyridin-3-yl)-3-methyl-1,3-dihydro-imidazo[4,5-c]quinolin-2-one]
	0.008 µM	COc1ncccc1-n1c(=O)n(C)c2cnc3ccc(-c4cnc(N)c(C(F)(F)F)c4)cc3c21 [Example 1.3, 8-(6-Amino-5-trifluoromethyl-pyridin-3-yl)-1-(2-methoxy-pyridin-3-yl)-3-methyl-1,3-dihydro-imidazo[4,5-c]quinolin-2-one]
0.013 µM		CCNc1cc(-c2ccc3ncc4c(c3c2)n(-c2ccc(N(C)CC)nc2C)c(=O)n4C)cnc1C [Example 12.2, 8-(5-Ethylamino-6-methyl-pyridin-3-yl)-1-[6-(ethyl-methyl-amino)-2-methyl-pyridin-3-yl]-3-methyl-1,3-dihydro-imidazo[4,5-c]quinolin-2-one]
0.078 µM		CNc1ccc(-c2ccc3ncc4c(c3c2)n(-c2ccc(NC(=O)COC)nc2C)c(=O)n4C)cn1 [Example 20.4, 2-Methoxy-N-{6-methyl-5-[3-methyl-8-(6-methylamino-pyridin-3-yl)-2-oxo-2,3-dihydro-imidazo[4,5-c]quinolin-1-yl]-pyridin-2-yl}-acetamide]
0.037 µM		CCOCc1cc(-c2ccc3ncc4c(c3c2)n(-c2ccc(F)nc2C)c(=O)n4C)cnc1N [Example 7.15, 8-(6-Amino-5-ethoxymethyl-pyridin-3-yl)-1-(6-fluoro-2-methyl-pyridin-3-yl)-3-methyl-1,3-dihydro-imidazo[4,5-c]quinolin-2-one]
0.113 µM		CNc1ncc(-c2ccc3ncc4c(c3c2)n(-c2cnc(F)cc2C)c(=O)n4C)cn1 [Example 16.3, 1-(6-Fluoro-4-methyl-pyridin-3-yl)-3-methyl-8-(2-methylamino-pyrimidin-5-yl)-1,3-dihydro-imidazo[4,5-c]quinolin-2-one]
0.067 µM		Cc1nc(N(C)C)ccc1-n1c(=O)n(C)c2cnc3ccc(-c4cncc(N)c4)cc3c21 [Example 19.5, 8-(5-Amino-pyridin-3-yl)-1-(6-dimethylamino-2-methyl-pyridin-3-yl)-3-methyl-1,3-dihydro-imidazo[4,5-c]quinolin-2-one]
0.036 µM		CCNc1cc(-c2ccc3ncc4c(c3c2)n(-c2ccc(F)nc2C)c(=O)n4C)cnc1CO [Example 7.9, 8-(5-Ethylamino-6-hydroxymethyl-pyridin-3-yl)-1-(6-fluoro-2-methyl-pyridin-3-yl)-3-methyl-1,3-dihydro-imidazo[4,5-c]quinolin-2-one]
0.042 µM		COCc1ncc(-c2ccc3ncc4c(c3c2)n(-c2ccc(OC)nc2OC)c(=O)n4C)cc1OC [Example 8.12, 1-(2,6-Dimethoxy-pyridin-3-yl)-8-(5-methoxy-6-methoxymethyl-pyridin-3-yl)-3-methyl-1,3-dihydro-imidazo[4,5-c]quinolin-2-one]

Source: US20100311714A1, “1H-IMIDAZO[4,5-c]QUINOLINONE COMPOUNDS” (priority 2009, published 2010)
